Test results published in US6600047B2, “Process for making amlodipine maleate” (Synthon BV, priority 2001, dated 2003).

CCOC(=O)C1=C(COCCNC(CC(=O)O)C(=O)O)NC(C)=C(C(=O)OC)C1c1ccccc1Cl (stereo not shown) [formula (1)]
melting point: 178 to 183 °C (dec.)
